Where a chain is given by its changes, count along the chain named.
Tests used:
[1] = target: T1, Zea mays EPSPS variant L-T at positions 103-107 (Zea mays, UniProt O24566, P106T/T102L); experiment: EPSPS substrate saturation kinetics, maize variant 103L 107T; format: biochemical
T1 sequence (O24566 with tags, fused parts or gaps T102L/P106T): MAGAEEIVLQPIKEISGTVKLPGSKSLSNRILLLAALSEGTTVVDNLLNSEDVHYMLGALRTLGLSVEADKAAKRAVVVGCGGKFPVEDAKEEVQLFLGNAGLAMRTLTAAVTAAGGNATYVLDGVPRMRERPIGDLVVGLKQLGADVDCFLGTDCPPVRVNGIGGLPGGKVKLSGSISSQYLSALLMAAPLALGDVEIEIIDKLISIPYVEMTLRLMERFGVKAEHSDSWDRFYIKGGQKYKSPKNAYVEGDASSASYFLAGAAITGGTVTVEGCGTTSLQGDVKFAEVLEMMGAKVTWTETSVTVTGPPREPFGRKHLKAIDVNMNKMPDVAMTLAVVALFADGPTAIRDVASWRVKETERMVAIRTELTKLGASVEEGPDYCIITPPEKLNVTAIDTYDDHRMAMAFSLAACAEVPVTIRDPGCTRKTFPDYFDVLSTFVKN
Method: EPSPS activity was determined by quantifying the phosphate generated from the EPSPS reaction. Release of inorganic phosphate was coupled to reaction with 2-amino-6-mercapto-7-methylpurine ribonucleoside, catalyzed by purine-nucleoside phosphorylase (M R Webb, Proc. Natl. Acad. Sci. 89:4884-4887, 1992). The absorbance change that occurs was monitored at 360 nm, where the extinction is 11,200 M^−1 cm^−1, with a Spectramax plate reader (Molecular Devices). To determine kinetic parameters, the varied substrate was present at seven concentrations (the eighth being the blank, containing no substrate) ranging from 4 to 400 uM and the unvaried substrate present at saturation. Six microliters of 50-fold concentrated stock solutions of the varied substrate were placed in the wells of the 96-well assay plate and reactions were started with the addition of a mixture containing 25 mM Hepes, pH 7, 100 mM KCl, 0.3 mM 2-amino-6-mercapto-7-methylpurine ribonucleosde, 1 uM (1 unit/ml) purine-nucleoside phosphorylase (Sigma N8264) and 200 uM of the non-varied substrate. Reactions were monitored with a Spectramax plate reader. The Michaelis-Menten kinetics protocol of the Spectramax software was customized for the substrate concentrations used. The software returns values of KM and Vmax using the Lineweaver-Burke transformation of the Michaelis-Menten equation. To determine kcat, Vmax (uM/min) was divided by the enzyme concentration (uM). […] KI was then calculated from the following form of the Michaelis-Menten equation for competitive inhibition: KI=KM[I]/(KM app−KM) KM approximates the dissociation constant of the enzyme-substrate complex while kcat is the rate of conversion of substrate to product when the substrate concentration is saturating. kcat/KM is a widely accepted parameter for catalytic efficiency when substrate concentration is low (˜KM). […] The parameter kcat/KM×KI is used to quantify both catalytic efficiency and insensitivity and thus the overall fitness of the enzyme. […]

[2] = system: Arabidopsis thaliana Col-0; experiment: Glyphosate spray (Touchdown) tolerance of Arabidopsis transformed with maize EPSPS constructs; format: in vivo
[3] = target: Zea mays EPSPS variant 241A 278G (Zea mays, UniProt O24566, K240A/T277G); experiment: EPSPS reaction rate with or without 10 uM glyphosate, 241A 278G; format: biochemical; conditions: pH 7; read-out: Reaction rate with 10 μM glyph, % no glyph; note: 50 µM PEP and S3P
Sequence of Zea mays EPSPS variant 241A 278G (O24566 entry or part of it K240A/T277G): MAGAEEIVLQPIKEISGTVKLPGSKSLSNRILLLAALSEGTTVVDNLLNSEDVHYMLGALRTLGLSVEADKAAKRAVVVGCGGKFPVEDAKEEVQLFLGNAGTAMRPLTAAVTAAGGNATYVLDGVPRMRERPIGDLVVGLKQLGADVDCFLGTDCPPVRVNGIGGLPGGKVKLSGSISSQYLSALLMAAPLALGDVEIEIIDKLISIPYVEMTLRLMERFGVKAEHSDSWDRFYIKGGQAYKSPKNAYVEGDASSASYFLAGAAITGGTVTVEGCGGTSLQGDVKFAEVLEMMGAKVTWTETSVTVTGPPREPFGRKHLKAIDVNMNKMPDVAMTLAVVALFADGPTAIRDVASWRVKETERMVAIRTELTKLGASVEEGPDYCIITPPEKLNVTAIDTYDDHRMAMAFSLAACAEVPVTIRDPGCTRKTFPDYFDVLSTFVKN

[4] = system: Glycine max (93Y21) cotyledon hairy roots; experiment: Hairy root growth of transformed soybean cotyledons on 25 uM glyphosate; format: cell-based
[5] = target: T2, Zea mays EPSPS variant Zm-H6 (868-H6) with A76V (H6-A76V) (Zea mays, UniProt O24566, A1R/A3W/A415G/A71Q/A75V/D401G/E301S/E390G/G101A/I207L/K83R/L97C/T278A/T360S/T440Q/V437R); experiment: Substrate saturation kinetic analysis with glyphosate, H6-A76V; format: biochemical
T2 sequence (O24566 with tags, fused parts or gaps A1R/A3W/A71Q/A75V/K83R/L97C/G101A/I207L/T278A/E301S/T360S/E390G/D401G/A415G/V437R/T440Q): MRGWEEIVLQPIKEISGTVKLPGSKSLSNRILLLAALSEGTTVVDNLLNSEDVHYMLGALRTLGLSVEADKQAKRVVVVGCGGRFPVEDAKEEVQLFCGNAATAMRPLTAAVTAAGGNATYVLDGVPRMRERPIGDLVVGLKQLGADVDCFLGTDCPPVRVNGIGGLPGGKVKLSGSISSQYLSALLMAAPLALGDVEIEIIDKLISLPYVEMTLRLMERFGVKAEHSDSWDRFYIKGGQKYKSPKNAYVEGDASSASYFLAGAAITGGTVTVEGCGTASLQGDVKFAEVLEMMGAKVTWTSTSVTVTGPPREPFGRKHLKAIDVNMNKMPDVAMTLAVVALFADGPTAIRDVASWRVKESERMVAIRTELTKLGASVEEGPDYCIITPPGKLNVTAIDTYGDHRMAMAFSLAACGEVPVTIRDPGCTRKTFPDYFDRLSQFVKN

[6] = target: T3, Zea mays EPSPS variant Zm-H6 (868-H6) with V87T (H6-V87T) (Zea mays, UniProt O24566, A1R/A3W/A415G/A71Q/D401G/E301S/E390G/G101A/I207L/K83R/L97C/T278A/T360S/T440Q/V437R/V86T); experiment: Substrate saturation kinetic analysis with glyphosate, H6-V87T; format: biochemical
T3 construct: 868-H6 plus V87T; E. coli BL21(DE3), Ni-NTA purified
T3 sequence (O24566 with tags, fused parts or gaps A1R/A3W/A71Q/K83R/V86T/L97C/G101A/I207L/T278A/E301S/T360S/E390G/D401G/A415G/V437R/T440Q): T2 sequence (O24566 with tags, fused parts or gaps A1R/A3W/A71Q/A75V/K83R/L97C/G101A/I207L/T278A/E301S/T360S/E390G/D401G/A415G/V437R/T440Q) with V76A, V87T

SMILES	kcat ([1]; PEP varied)	plant injury and growth inhibition compared to unsprayed controls ([2]; plants transformed with UbiQ10 promoter and H6 variant)	growth after treatment ([2]; untransformed plants, 1.26 kg/Ha spray)	plant injury ([2]; untransformed plants, 1.26 kg/Ha spray, by 10 days)	activity at 10 µM [3] [%]	hairy root formation ([4]; EPSPS driven by weaker promoters (UBQ3 and native), with glyphosate)	hairy root formation ([4]; UBQ10 promoter and H6, C1 and C2 variants, 25 uM glyphosate)	root growth ([4]; native EPSPS (UBQ10 promoter), 25 uM glyphosate)	Ki [5] [µM]	(kcat/KM)*KI ([5]; substrate saturation, H6-A76V)	Ki [1] [µM]	(kcat/KM)*KI ([1]; PEP as substrate, glyphosate as inhibitor)	Ki [6] [µM]	(kcat/KM)*KI ([6]; substrate saturation, H6-V87T)
C=C(OP(=O)(O)O)C(=O)O [PEP, phosphoenolpyruvate]	184	–	–	–	–	–	–	–	–	–	–	–	–	–
O=C(O)CNCP(=O)(O)O [glyphosate, N-phosphonomethylglycine]	–	no visible injury or growth inhibition	did not grow at all	chlorosis and imminent necrosis	3.75	Hairy roots were not formed	generated hairy roots	no root growth	538	2490	289	1163	348	3280
